Experimental data: article PMC11748689, “Pharmacological and structural understanding of the Trypanosoma cruzi proteasome provides key insights for developing site-specific inhibitors” (The Journal of Biological Chemistry, 2024)

What was measured:
[1] = target: recombinant WT T. cruzi proteasome (caspase-like activity, β1) (Trypanosoma cruzi, UniProt V5BHX1); assay: Caspase-like activity assay (Proteasome-Glo), recombinant wild-type T. cruzi proteasome; format: biochemical
Description: Chymotrypsin-, trypsin-, and caspase-like activity assays were performed using a commercially available Proteasome-Glo 3-substrate system assay kit (catalog number G8532) (Promega Corporation) according to the manufacturers protocols and as previously described ([24]).
Prior to running assays, Proteasome-Glo buffer was used to reconstitute the luciferin detection reagent (containing a recombinant thermostable luciferase enzyme). The resuspended luciferin detection reagent was then mixed with Proteasome-Glo chymotrypsin-, trypsin- or caspase-like substrates (either 40 μM suc-Leu-Leu-Val-Tyr-aminoluciferin, 30 μM Z-Leu-Arg-Arg-aminoluciferin (Z is benzyloxycarbonyl) or 40 μM Z-Nle-Pro-Nle-Asp-aminoluciferin respectively (these concentrations represent 2x final assay concentrations)). These substrate mixtures were allowed to incubate at room temperature for 60 min prior to use to allow the removal of any contaminating free aminoluciferin.
When proteasome inhibitors were to be screened in the chymotrypsin, trypsin, and caspase assays, test compounds were dispensed into assay wells using an ECHO 550 acoustic dispenser (Labcyte) (final DMSO concentration 1%). Compounds were tested in either a 10-point concentration series (30 μM top final assay concentration, 1 in 3 dilution series) or a 12-point concentration series (30 μM top final assay concentration, 1 in 2.5 dilution series).
Proteasome assays were then performed as described above using Promega Proteasome-Glo 3-substrate system assay kit. […] Diluted proteasome (4 μl) was added to assay plates using an electronic multichannel pipette (Integra Biosciences Ltd) and the proteasome incubated with compound for 60 min at room temperature.
Following the 60 min incubation of proteasome and compounds, assays were initiated with the addition of 4 μl of a substrate mix (containing substrate and the luciferin detection reagent) using an electronic multichannel pipette. Final assay concentrations of substrates used were either 20 μM Suc-Leu-Leu-Val-Tyr-aminoluciferin, 15 μM Z-Leu-Arg-Arg-aminoluciferin, or 20 μM Z-Nle-Pro-Nle-Asp-aminoluciferin for chymotrypsin-, trypsin-, or caspase-like activity, respectively. Following a further 60 min assay incubation, luminescence was read using an EnVision 2102 Multilabel Reader (PerkinElmer, Inc) with 0.2 s per well reading time.
All data processing was performed using Microsoft Excel for Microsoft 365 software.
Nonlinear dose-response curve fitting was carried out using the Microsoft Excel add-in, XLfit (IDBS). Percentage inhibition data were either fitted to a standard 4-parameter logistic fit model (XLfit model 205; Equation 2) or a biphasic model (either XLfit model 300; Equation 3 or a custom biphasic model; Equation 4 (used in cases where the top and/or bottom parameters deviated from 100%/0% inhibition)).(2) y=A+(B−A)/1+(C/x)^D Where A = % inhibition at bottom, B = % inhibition at top, C = IC50, D = slope, x = inhibitor concentration and y = % inhibition.(3) y=(A/(1+10^(C−log(x))∗B))+((100−A)/(1+10^(D−log(x))∗B)) With A = % inhibition at midplateau, B = slope, C = log(IC50^A), D = log(IC50^B)).
All IC50 data generated were converted to pIC50 using Equation 5.

[2] = target: human proteasome (chymotrypsin activity) (Homo sapiens, UniProt P28074); assay: Human proteasome chymotrypsin activity assay; format: biochemical; conditions: dose response curve, n = 2 (Fig. S7)
Description: Human proteasome assays were carried out as described in ([42]).

## O=C(Nc1ccc(F)c(-c2cn3nc(-c4ccccc4)cnc3n2)c1)N1CCCC1 [DDD01012248]
[1]
  IC50: > 30.2 µM

## O=C(Nc1ccc(F)c(C(=O)NC2CC2)c1)c1ccc(COc2ccccc2)o1 [DDD02091966, N-(3-(cyclopropylcarbamoyl)-4-fluorophenyl)-5-(phenoxymethyl)furan-2-carboxamide]
[1]
  IC50: > 30.2 µM
[1]; native and recombinant T. cruzi proteasomes
  inhibition of the caspase activity: no inhibition
[2]
  inhibition of the human chymotrypsin activity: no inhibition
